Experiments:
[1] = Absorption coefficient (absorbance of 0.001% solution in tetrahydrofuran); type: physicochemical; conditions: for Λ max (absorption maximum wavelength): 0.001% (wt/vol) in tetrahydrofuran, from 280 nm to 400 nm; for Absorption coefficient at 365 nm / Absorption coefficient at Λ max: 0.001% (wt/vol) solution in tetrahydrofuran
Method: A 0.001% (wt/vol) solution of each of the compounds 1, 2, 4, 6, 8, 9, 11, 12, 13, 15, 16, D-1, D-3, D-4, D-7, D-8, D-9, D-12, D-14, D-15, D-20, C-1, and C-2 in tetrahydrofuran was prepared, and its absorbance was measured with a spectrophotometer (manufactured by Hitachi High-Technologies Corporation, trade name: “U-3900H”). An absorption maximum wavelength (Amax) at a wavelength of from 280 nm to 400 nm was read from an absorption spectrum obtained with the spectrophotometer.

[2] = Decomposition point by thermal analysis (TG-DTA); type: physicochemical; conditions: 5.0 mg
Method: The compounds 1, 2, 4, 6, 8, 9, 11, 12, 13, 15, 16, D-1, D-3, D-4, D-7, D-8, D-9, D-12, D-14, D-15, D-20, C-1, and C-2 were each subjected to measurement with a thermal analysis apparatus (TG-DTA) (manufactured by Rigaku Corporation, trade name: “Thermo Plus EVO TG 8120”) by using 5.0 mg thereof.

[3] = Solubility in PGME, PGMEA and ethyl lactate; type: physicochemical; conditions: for Solubility Ethyl lactate: in 100 parts by weight of ethyl lactate; for Solubility Ethyl lactate / Solubility PGMEA / Solubility PGME: room temperature; for Solubility PGMEA: in 100 parts by weight of propylene glycol monomethyl ether acetate; for Solubility PGME: in 100 parts by weight of propylene glycol monomethyl ether
Method: An evaluation for solubility was performed in accordance with the following evaluation criteria based on the dissolution amount.
A: 10 Parts by weight or more of the photopolymerization initiator is dissolved.
B: An amount in the range of from 5 parts by weight or more to less than 10 parts by weight of the photopolymerization initiator is dissolved.
C: An amount in the range of from 2 parts by weight or more to less than 5 parts by weight of the photopolymerization initiator is dissolved.
D: Less than 2 parts by weight of the photopolymerization initiator is dissolved.

[4] = Evaluation 1: 20-μm pattern line width of transparent photosensitive composition; conditions: for 20-μm pattern line width: transparent composition, initiator 0.4 mmol; for sensitivity to the active energy ray (in words): photopolymerization initiator containing the compound
Method: After that, the mixture was filtered with a membrane filter having an aperture of 5 μm to provide a photosensitive composition.
It should be noted that the fluorene-based compound as a photopolymerization initiator was used in such an amount that its molar quantity was kept constant in the respective examples and comparative examples.
The glass substrate after the application was dried with a fan dryer at 90° C. for 10 minutes. Thus, a coating film (photosensitive layer) was formed. Next, the film was exposed to light having an exposure energy quantity of 5 mJ/cm^2, 10 mJ/cm^2, 20 mJ/cm^2, 40 mJ/cm^2, 60 mJ/cm^2, or 80 mJ/cm^2 by using a high-pressure mercury lamp (manufactured by Karl Suss, trade name: “MASK ALIGNER”) through a negative mask (mask width: 20 μm). Next, the resultant was immersed in a 0.1 wt % aqueous solution of tetramethylammonium hydroxide (TMAH) and then rinsed with pure water. The remaining cured film was subjected to the following evaluation.
(§1) A larger value for the line width means higher sensitivity.

[5] = Average transmittance of composition; type: physicochemical; conditions: photosensitive composition, quartz cell, optical path length 1 cm
Method: The average transmittance (%) of each of the photosensitive resin compositions obtained in Examples 1 to 9, Examples 2-1 to 2-10, and Comparative Examples 1 and 2 in the range of from 400 nm to 700 nm was measured with a spectrophotometer (manufactured by Hitachi High-Technologies Corporation, trade name: “U-3900H”, quartz cell, optical path length; 1 cm).

[6] = Transmittance of transparent cured film; type: physicochemical; conditions: cured at exposure energy quantity 80 mJ/cm^2
Method: Transparent cured films were formed by using the photosensitive compositions obtained in Examples 1 to 9, Examples 2-1 to 2-10, and Comparative Examples 1 and 2 in the same manner as in the evaluation 1 except that the exposure energy quantity was set to 80 mJ/cm^2. The transmittance (%) of each of the resultant transparent cured films at 400 nm and the average transmittance (%) thereof in the range of from 400 to 700 nm were measured with a spectrophotometer (manufactured by Hitachi High-Technologies Corporation, trade name: “U-3900H”, quartz cell, optical path length; 1 cm). A higher transmittance at 400 nm means less coloring with a yellow color. In addition, a higher transmittance of a coating film means a higher transmitting property of a pattern to be formed.

[7] = Evaluation 3: 20-μm pattern line width of black photosensitive composition; conditions: black composition (carbon black, cardo resin), initiator 0.4 mmol
Description: The mixture was filtered with a membrane filter having an aperture of 5 μm to provide a photosensitive composition.
Photosensitive compositions were each obtained in the same manner as in Example 10 except that the used fluorene-based compound and its usage were changed as shown in Table 5.
Each of the photosensitive compositions obtained in Examples 10 to 15, Examples 2-11 to 2-20, and Comparative Example 3 was applied onto a glass substrate with a spin coater (manufactured by Kyowariken Co., Ltd., trade name: “K-359SD1”) so that its thickness after drying became 1.0 μm. The glass substrate after the application was dried with a fan dryer at 90° C. for 10 minutes. Thus, a coating film (photosensitive layer) was formed. Next, the film was exposed to light having an exposure energy quantity of 10 mJ/cm^2, 20 mJ/cm^2, 40 mJ/cm^2, 60 mJ/cm^2, or 80 mJ/cm^2 by using a high-pressure mercury lamp (manufactured by Karl Suss, trade name: “MASK ALIGNER”) through a negative mask (mask width: 20 μm). Next, the resultant was immersed in a 0.1 wt % aqueous solution of tetra methyl ammonium hydroxide (TMAH) and then rinsed with pure water. The remaining cured film was subjected to the following evaluation. In addition, FIGS. 2, 3, and 6 show microscope photographs of black cured films obtained by using the photosensitive compositions of Examples 10 and 11, and Comparative Example 3, and FIGS. 7 to 11 show microscope photographs of black cured films obtained by using the photosensitive compositions of Examples 2-11, 2-13, 2-14, 2-17, and 2-18.
as §1

[8] = exposure energy quantity 20 mJ/cm^2
[9] = exposure energy quantity 40 mJ/cm^2
[10] = exposure energy quantity 60 mJ/cm^2
[11] = exposure energy quantity 80 mJ/cm^2
[12] = exposure energy quantity 10 mJ/cm^2
[13] = exposure energy quantity 5 mJ/cm^2

Row | Λ max (absorption maximum wavelength) [1] | Absorption coefficient at 365 nm [1] | Absorption coefficient at Λ max [1] | Decomposition point [2] | Average transmittance (700 nm to 400 nm) Solution [5] | Average transmittance (700 nm to 400 nm) Transparent cured film [6] | Transmittance (400 nm) Transparent cured film [6] | Compound | Solubility Ethyl lactate [3] | Solubility PGMEA [3] | Solubility PGME [3] | 20-μm pattern line width [4, 8] | 20-μm pattern line width [4, 9] | 20-μm pattern line width [4, 11] | 20-μm pattern line width ([7]; 10 mJ/cm^2) | 20-μm pattern line width ([7]; 20 mJ/cm^2) | 20-μm pattern line width ([7]; 40 mJ/cm^2) | 20-μm pattern line width ([7]; 60 mJ/cm^2) | 20-μm pattern line width ([7]; 80 mJ/cm^2) | sensitivity to the active energy ray (in words) [4] | 20-μm pattern line width [4, 12] | also measured
1 | 298.5 nm | 4.4 mL/mg/cm | 94.4 mL/mg/cm | 216.4 °C | 94.2% | 99.8% | 98.9% | CCn1c2ccc(C(=O)c3ccccc3C)cc2c2cc(/C(C)=N/OC(C)=O)ccc21 [Compound C-1, reference compound] | C (An amount in the range of from 2 parts by weight or more to less than 5 parts by weight of the photopolymerization initiator is dissolved.) | B (An amount in the range of from 5 parts by weight or more to less than 10 parts by weight of the photopolymerization initiator is dissolved.) | B (An amount in the range of from 5 parts by weight or more to less than 10 parts by weight of the photopolymerization initiator is dissolved.) | 20.4 | 22.1 | 22.4 | 18.5 | 19.0 | 20.0 | 20.9 | 21.2 | – | – | 20-μm pattern line width [4, 10]: 22.3
2 | 343.5 nm | 33.2 mL/mg/cm | 54.1 mL/mg/cm | 273.4 °C | 57.5% | 99.2% | 91.7% | CCCC1(CCC)c2cc(C(=NOC(C)=O)c3ccccc3)ccc2-c2ccc([N+](=O)[O-])cc21 [Compound D-1] | D (Less than 2 parts by weight of the photopolymerization initiator is dissolved.) | C (An amount in the range of from 2 parts by weight or more to less than 5 parts by weight of the photopolymerization initiator is dissolved.) | D (Less than 2 parts by weight of the photopolymerization initiator is dissolved.) | 20.9 | 22.4 | 23.1 | 19.4 | 20.4 | 21.9 | 22.3 | 23.1 | additionally high sensitivity to the active energy ray | 20.2 | 20-μm pattern line width [4, 10]: 22.8
3 | 345.5 nm | 39.0 mL/mg/cm | 58.4 mL/mg/cm | 174.7 °C | 79.9% | 99.7% | 93.6% | CCCC1(CCC)c2cc(C(CCCCl)=NOC(C)=O)ccc2-c2ccc([N+](=O)[O-])cc21 [Compound D-12] | B (An amount in the range of from 5 parts by weight or more to less than 10 parts by weight of the photopolymerization initiator is dissolved.) | A (10 Parts by weight or more of the photopolymerization initiator is dissolved.) | A (10 Parts by weight or more of the photopolymerization initiator is dissolved.) | 21.4 | 22.3 | 23.3 | 19.1 | 20.5 | 21.6 | 22.5 | 22.7 | additionally high sensitivity to the active energy ray | 20.6 | solubility (in words) ([3]; photopolymerization initiator containing the compound): additionally excellent solubility; 20-μm pattern line width [4, 13]: 19.8
4 | 345.5 nm | 46.3 mL/mg/cm | 67.8 mL/mg/cm | 272.2 °C | 88.9% | 99.8% | 95.2% | CCCC1(CCC)c2cc(C(C)=NOC(C)=O)ccc2-c2ccc([N+](=O)[O-])cc21 [Compound D-3] | D (Less than 2 parts by weight of the photopolymerization initiator is dissolved.) | C (An amount in the range of from 2 parts by weight or more to less than 5 parts by weight of the photopolymerization initiator is dissolved.) | D (Less than 2 parts by weight of the photopolymerization initiator is dissolved.) | 21.4 | 22.5 | 23.8 | 19.6 | 20.6 | 21.6 | 22.1 | 22.6 | additionally high sensitivity to the active energy ray | 20.9 | 20-μm pattern line width [4, 13]: 19.6

Reference: patent US9684238B2, “Fluorene-type compound, photopolymerization initiator comprising said fluorene-type compound, and photosensitive composition containing said photopolymerization initiator” (TOKYO OHKA KOGYO CO., LTD., priority 2012, dated 2017)
